Experimental data taken from US7611863B2, “Selective staining of biomembranes using voltage-sensitive dyes” (Max-Planck-Gesellschaft zur Foerderung der Wissenschaften …, priority 2004, dated 2009).

Key:
[1] = Dye-lipid binding by fluorescence lipid titration; format: physicochemical; conditions: for average binding constant K to lipid membrane: POPC vesicles, Tris-NaCl buffer pH 8.1, 25° C., dye 0.5 μM; for binding constant to lipid membranes: fluorescence lipid titration, Example 2
Method: Dye-lipid binding. The binding of the dyes to lipid membranes was determined by fluorescence lipid titration^21 with large unilamellar vesicles (LUVs) made of 1-palmitoyl-2-oleoyl-phosphatidylcholine (POPC). The purity of the lipids was checked by 2-dimensional TLC^22. The vesicles were made by extrusion^23 in Tris-NaCl buffer (20 mM Tris, 100 mM NaCl, pH 8.1), using an extrusion apparatus and polycarbonate filters with 100 nm pore size (both Avestin Europe, Mannheim, Germany). Vesicle size was determined by quasielastic light scattering using an argon ion laser (Spectra-Physics, Darmstadt, Germany), a photomultiplier (Brookhaven Instruments, Vienna, Austria) and a correlator (ALV-5000, Langen, Germany). The lipid concentration was determined by a chromogenic enzyme assay (Biomerieux, Marcy I'Etoile, France). The standard deviation of three concentration measurements for every vesicle preparation was always below 4%. Vesicles were stored under argon at 4° C. in 15 ml Falcon Centrifuge Tubes (BD Labware Europe, Le Pont de Claix, France) and used within three days.
To measure dye binding constants, we prepared 1 mM solutions of the dyes 1-3 by ultrasonication in Ethanol (1) or Tris-NaCl buffer (2,3). […] In the same buffer, suspensions of POPC vesicles with concentrations ranging from 100 nM to 10 mM were prepared by dilution of stock solutions. Dye and lipid were pre-thermostatted to 25° C. […] The fluorescence emission recorded at 600 nm with excitation at 488 nm was used for the evaluation of the partition coefficients.
Dye binding to lipid. When styryl hemicyanines bind to lipid bilayers, their quantum yield of fluorescence is enhanced. […] We take advantage of that effect to examine the binding of Di-4-ASPP phosphate and Di-4-ASPP alcohol to lipid membranes by fluorescence titration^21. For comparison Di-4-ASPBS was also included in the investigation.
Dispersions of large lipid vesicles (Ø≈100 nm) were made from palmitoyl-oleoyl-phosphatidylcholine (POPC) with lipid concentrations ranging over five orders of magnitude. […] The fluorescence intensity was enhanced with increasing concentration of lipid for all three dyes. The enhancement was shifted to higher lipid concentrations in the order Di-4-ASPP alcohol, Di-4-ASPBS and Di-4-ASPP phosphate.
Binding. The dyes Di-10-phosphato-ASPBS (Di-10P-ASPBS) and Di-12-phosphato-ASPBS (Di-12P-ASPBS) as well as the corresponding products after enzymatic hydrolysis Di-10-hydroxy-ASPBS (Di-10A-ASPBS) and Di-12-hydroxy-ASPBS (Di-12A-ASPBS) were synthesized by organic chemical methods. Their binding to lipid membranes was tested by fluorescence lipid titration (cf. page 15, section dye binding to lipid). The binding constants amounted to 27 M^−1 (Di-10P-ASPBS), 250,000 M^−1 (Di-10A-ASPBS), 2100 M^−1 (Di-12P-ASPBS) and 3,000,000 M^−1 (Di-12P-ASPBS) (FIGS. 14 and 15 (center and right hand side)). The difference in binding constants between dye alcohol and dye phosphates (or dye precursors) therefore amounted to a factor of 10,000 for the pair Di-10P-ASPBS/Di-10A-ASPBS and to a factor of 1000 for the pair Di-12P-ASPBS/Di-12A-ASPBS. The binding curve for the more lipophilic pair Di-12P-ASPBS/Di-12A-ASPBS is shifted to […] lipid concentrations.

[2] = upon transfer from water to lecithin membranes; cited from earlier work
[3] = test system: HEK 293 cells; test: Staining of HEK 293 cells by activation of binding through soluble phosphatase; format: cell-based
Method: FIG. 12A to F: Staining of HEK 293 cells with a voltage sensitive dye by activation of binding through soluble phosphatase added to the incubation medium. HEK 293 cells (A, brightfield image) were incubated with the voltage sensitive fluorescent dye Di-8-phosphato-ASPBS (cf. FIG. 11, bottom) at a concentration of 19.6 μM. […] The images shown are optimized for contrast and intensity.

[4] = test system: HEK 293 cells expressing fusion protein of plasma membrane anchor and PLAP; test: Staining of HEK 293 cells through overexpressed membrane-bound phosphatase; format: cell-based
From the text: FIG. 13A to C: Staining of transfected HEK 293 cells with a voltage sensitive dye by activation of binding through an overexpressed, membrane-bound phosphatase. HEK 293 cells were cotransfected with a vector coding for GFP and a vector coding for a fusion protein of a plasma membrane anchor and phosphatase from the human placenta. A. fluorescence image showing the GFP fluoresence of a transfected cell (excitation filter 450/50 nm, emission filter 510 nm longpass; dichroic mirror: 505 nm). B. The voltage sensitive fluorescent dye Di-8-phosphato-ASPBS (cf. FIG. 11, bottom) was added to the incubation medium. […] C. […] The images shown are optimized for contrast and intensity.
(§1) FIG. 16. Genetically Targeted Staining of HEK293 cells with 1 mM Di-10P-ASPBS. A mixture of stable clones either expressing the membrane-bound phosphatase construct or cytosolic GFP were cultured on the same dish. (A) From left to right: (i) Brightfield image of cells. (ii) Fluorescence image of cells showing cells expressing cytosolic GFP (excitation filter 450/50 nm, emission filter 510 nm, dichroic mirror 505 nm). (iii) Cells expressing phosphatase as obtained by subtraction of GFP expressing cells from image i. (iv) Fluorescence image of cells with filters exc. 535/50 nm, em. 610/75 nm; dichroic mirror 535 nm. The image is normalized to the same level as in row B. (v) autoleveled image iv, showing fluorescence crosstalk of GFP. (B) Enzyme induced staining of cells as measured with filter set exc. 535/50 nm, em. 610/75 nm; dichroic mirror 535 nm. The membrane fluorescence increases over time. (C). Inverted and contrast-enhanced fluorescence images corresponding to row B. (D) Difference images. The image A/iv was subtracted from the images in row B. The resulting images were inverted and contrast was enhanced.
as §1, with “17.” for “16.”, “200 nM Di-12P-ASPBS.” for “1 mM Di-10P-ASPBS.”, “difference” for “and contrast-enhanced fluorescence images corresponding to row B. (D) Difference”, “enhanced. (D) Contrast enhanced images of row C.” for “enhanced.”
Enzyme induced staining. The dye precursors Di-10P-ASPBS and Di-12P-ASPBS were used to effect enzyme induced staining on cells. To test whether the staining is selective, a mixture of two cell populations was cultured in the same dish. One of these stably expressed the phosphatase construct, while the other was stably expressing GFP as a negative marker.

[5] = test system: Madine Darby Canine Kidney (MDCK) cells; test: Enzyme induced staining of transiently transfected MDCK cells; format: cell-based
Method: FIG. 19. Genetically Targeted Staining of MDCK cells with Di-10P-ASPBS and Di-12P-ASPBS. (A) Cells were cotransfected with the membrane-bound phosphatase construct termed ArtPlasMA AP and H2B-GFP, a nucleus-localized transfection marker. Brightfield image and fluorescence images before (−1 sec) and after addition of 200 nM Di-10P-ASPBS. (B) Analogous to row A, but using 200 nM Di-12P-ASPBS. (C) Control experiment. Cells were transfected only with H2B-GFP and incubated with 200 nM Di-12P-ASPBS. Brightfield image and fluorescence images before (−1 sec) and after addition of dye (8 min). (D) Control experiment. Cells were cotransfected with the membrane-bound phosphatase construct termed ArtPlasMA AP and H2B-GFP and incubated with the dye Di-10A-ASPBS. Brightfield image and fluorescence image before (−1 sec) and after addition of dye (20 sec).
Two control experiments were performed: In the first control, cells were transfected only with the transfection marker H2B-GFP. […] In addition, no difference in staining intensity between transfected and untransfected cells can be discerned (FIG. 19C). In the second control experiment, cells were cotransfected with the phosphatase construct and the transfection marker.

[6] = cells cotransfected with ArtPlasMA AP and H2B-GFP, 200 nM

In the case of `CCCCN(CCCC)c1ccc(C=Cc2cc[n+](CCCCS(=O)(=O)[O-])cc2)cc1` [Di-4-ASPBS, Di-4-ASP butylsulfonate, reference compound], the “average binding constant K to lipid membrane” value [1] is given as 7500 ± 440 M⁻¹, the “increment of the binding energy Δ(ΔG) relative to the alcohol” value ([1]; −RT ln(K/KA)) is given as 0.526 kcal/mol and the “increase in fluorescence quantum yield” value [2] is given as 36 fold.

With `CCCCN(CCCC)c1ccc(/C=C/c2cc[n+](CCCO)cc2)cc1.[Br-]` [Di-4-ASPP alcohol, 1-[γ-hydroxypropyl]-trans-4-[p-(di-n-butylamino)styryl]-pyridinium bromide] the “average binding constant K to lipid membrane” value [1] was 17920 ± 360 M⁻¹.

With Di-8-phosphato-ASPBS the “permeation of the cell plasma membrane” value ([3]; 19.6 μM, 30 minutes, cell interior stained only slightly) was “permeates the cell plasma membrane very slowly”, the “membrane fluorescence before enzyme addition” value ([3]; 19.6 μM, after 30 minutes, no enzyme) was “no membrane fluorescence could be detected” and the “membrane fluorescence after addition of soluble PLAP” value ([3]; PLAP 0.18 DEA Units/ml, 15 sec to 6 min) was “membrane fluorescence was activated and increased over time”. The “membrane fluorescence directly after dye addition” value ([4]; transfected HEK 293 cell) was “no membrane fluorescence was visible”, the “membrane staining after 5 min of incubation” value ([4]; transfected HEK 293 cell) was “the membrane of the transfected cell was clearly stained” and the “membrane fluorescence of untransfected control cells” value ([4]; untransfected HEK 293 cells incubated with the dye) was “did not show any membrane fluorescence”.

In the case of Di-10-hydroxy-ASPBS [Di-10A-ASPBS], the “binding constant to lipid membranes” value [1] is reported as 250,000 M^−1 and the “staining by product dye, transfected versus untransfected cells” value ([5]; cotransfected with phosphatase construct and H2B-GFP) is reported as “equally and unselectively stained”.

For Di-10-phosphato-ASPBS [Di-10P-ASPBS], the “binding constant to lipid membranes” value [1] was 27 M⁻¹, the “difference in binding constants between dye alcohol and dye phosphate (precursor)” value ([1]; pair precursor/product dye) was 10,000 factor and the “enzyme induced membrane staining in mixed cell populations” value ([4]; phosphatase clones and GFP clones in same dish, 1 mM Di-10P-ASPBS, 200 nM Di-12P-ASPBS) was “allowed enzyme induced membrane staining”. For the same compound, the “localization of staining at beginning of experiment” value [5, 6] was “staining is localized to the transfected cells at the beginning of the experiment” and the “localization of staining over several minutes” value [5, 6] was “the produced dye diffuses to the surrounding, nontransfected cells”.
